Results on eight molecules are retold here after ChEMBL document CHEMBL1201862, “PubChem BioAssay data set” (2004).

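1) Cells in 96-well plates. 2) Compound, 48 h, 5 concentrations. 3) Linear interpolation between surrounding doses. 4) Unreached endpoint = highest concentration. GI50 marks 50% less growth.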 Activity calls are given as the source filed them. Rule as the data show it: active = GI50 up to about 1.1 µM and inactive = higher.

Among the test systems are SW-620; SF-268; HOP-62; A498; UACC-62; NCI-H460; UACC-257; OVCAR-3; UO-31; CAKI-1; BT-549; HCT-15; MCF7; DU-145; SK-OV-3; A549; Malme-3M; MDA-N; HL-60.
Holding throughout (assay): NCI anticancer screen, dose series, 48 h

Take `CC[N+](CC)(CCNCC(N)=O)CC(N)=O`: the GI50 with SW-620, with SF-268, in the assay with HOP-62, in the assay on A498, in the assay with UACC-62 and with NCI-H460 was > 10 µM (inactive) in each case. Besides, the GI50 is > 10 µM (inactive) with UACC-257; > 10 µM (inactive) in the assay on OVCAR-3; > 10 µM (inactive) in the assay with UO-31; > 10 µM (inactive) with CAKI-1; > 10 µM (inactive) with BT-549; above 10 µM in the assay on HCT-15. For the same molecule, the GI50 with MCF7, with DU-145, with SK-OV-3, in the assay on A549, in the assay on Malme-3M and in the assay on MDA-N was > 10 µM (inactive) each time. The GI50 in the assay with HL-60 is > 10 µM (inactive).
With `COc1ccc(/N=C(/SS/C(=N/c2ccc(OC)cc2)c2ccc([N+](=O)[O-])o2)c2ccc([N+](=O)[O-])o2)cc1`, the GI50 is 0.35 µM (active) in the assay on SW-620; 1.89 µM (inactive) with SF-268; 1.94 µM (inactive) with HOP-62; 12.4 µM (inactive) with A498; 1.28 µM (inactive) in the assay with UACC-62; 0.982 µM (active) in the assay on NCI-H460. For the same molecule, the GI50 in the assay on UACC-257 was 2.06 µM (inactive); with OVCAR-3, 0.624 µM (active); in the assay with UO-31, 1.24 µM (inactive); in the assay with CAKI-1, 1.92 µM (inactive); in the assay on BT-549, 1.54 µM (inactive); in the assay on HCT-15 it was 0.489 µM. For the same molecule, the GI50 is 0.51 µM (active) in the assay with MCF7; 1.41 µM (inactive) in the assay on DU-145; 2.79 µM (inactive) in the assay with SK-OV-3; 2.79 µM (inactive) in the assay with A549; 2.02 µM (inactive) with Malme-3M; 2.07 µM (inactive) with MDA-N. Also, in the assay with HL-60, the GI50 was 1.69 µM (inactive).
In the case of `O=c1[nH]c2cc([N+](=O)[O-])c(N(CCO)CCO)c([N+](=O)[O-])c2[nH]1`, the GI50 in the assay on SW-620 is 41.2 µM (inactive); in the assay on SF-268, 37.4 µM (inactive); in the assay with HOP-62, 33 µM (inactive); in the assay on A498, 22.2 µM (inactive); in the assay with UACC-62 it was 24.1 µM (inactive); in the assay with NCI-H460, 21.4 µM (inactive). Moreover, the GI50 was 27 µM (inactive) in the assay with UACC-257; 16.9 µM (inactive) in the assay on OVCAR-3; 35.1 µM (inactive) in the assay on UO-31; 29 µM (inactive) in the assay on CAKI-1; 18.5 µM (inactive) with BT-549; 31.3 µM with HCT-15. Moreover, the GI50 in the assay on MCF7 is 46.8 µM (inactive); in the assay on DU-145, 39.4 µM (inactive); in the assay on SK-OV-3 it was 27 µM (inactive); with A549 it was 35.2 µM (inactive); with Malme-3M, 61.2 µM (inactive); in the assay on MDA-N, 33.7 µM (inactive). Also, the GI50 with HL-60 was 28.2 µM (inactive).
For the molecule `O=C(O)CC1NCc2cc3ccccc3nc21` (configuration not stated), the GI50 in the assay with SW-620, in the assay on SF-268, in the assay with HOP-62, in the assay with A498, with UACC-62 and in the assay on NCI-H460 was > 100 µM (inactive) in each case. The GI50 in the assay with UACC-257 is > 100 µM (inactive); with OVCAR-3, > 100 µM (inactive); in the assay on UO-31, > 100 µM (inactive); with CAKI-1, > 100 µM (inactive); with BT-549 it was > 100 µM (inactive); in the assay with HCT-15, above 100 µM. The GI50 in the assay with MCF7, in the assay with DU-145, with SK-OV-3, with A549, in the assay on Malme-3M and with MDA-N was > 100 µM (inactive) in each case. For the same molecule, the GI50 with HL-60 was > 100 µM (inactive).
`CC(C)C(N)(C(=O)O)c1ccccc1` (configuration not stated): the GI50 in the assay on SW-620, in the assay with SF-268, with HOP-62, in the assay with A498, in the assay with UACC-62 and with NCI-H460 was > 100 µM (inactive) in each case. Moreover, the GI50 in the assay on UACC-257 is > 100 µM (inactive); with OVCAR-3, > 100 µM (inactive); with UO-31 it was > 100 µM (inactive); in the assay with CAKI-1 it was > 100 µM (inactive); with BT-549 it was > 100 µM (inactive); with HCT-15, above 100 µM. Further, the GI50 in the assay on MCF7, in the assay on DU-145, in the assay with SK-OV-3, in the assay with A549, in the assay on Malme-3M and in the assay on MDA-N was > 100 µM (inactive) in each case. Moreover, in the assay on HL-60, the GI50 was > 100 µM (inactive).
Consider `O=C(COc1ccccc1)N(C(=O)N1CCN(c2ccccc2)CC1)S(=O)(=O)c1ccccc1`, for which the GI50 with SW-620 is 42.5 µM (inactive); with SF-268 it was 60.8 µM (inactive); in the assay with HOP-62 it was 72.8 µM (inactive); with A498, > 100 µM (inactive); with UACC-62, > 100 µM (inactive); in the assay on NCI-H460, 71.9 µM (inactive). For the same molecule, the GI50 was > 100 µM (inactive) in the assay on UACC-257; 62.4 µM (inactive) in the assay on OVCAR-3; 94.6 µM (inactive) with UO-31; > 100 µM (inactive) in the assay with CAKI-1; > 100 µM (inactive) in the assay with BT-549; 47.5 µM with HCT-15. Moreover, the GI50 in the assay with MCF7 was 45.9 µM (inactive); in the assay on DU-145, 98.6 µM (inactive); with SK-OV-3 it was > 100 µM (inactive); in the assay on A549 it was > 100 µM (inactive); in the assay on Malme-3M, > 100 µM (inactive); in the assay on MDA-N it was 62.4 µM (inactive). In the assay on HL-60, the GI50 is 83.4 µM (inactive).
`O=[N+]([O-])c1ccc2c(c1)N=C1OC(c3c[nH]c4ccc(COc5ccccc5)cc34)C(O)=C1N2` (configuration not stated): the GI50 with SW-620 was > 100 µM (inactive); in the assay on SF-268, > 100 µM (inactive); with HOP-62, 60.3 µM (inactive); in the assay with A498, > 100 µM (inactive); in the assay on UACC-62, 52 µM (inactive); in the assay with NCI-H460, > 100 µM (inactive). For the same molecule, the GI50 is 33.7 µM (inactive) with UACC-257; > 100 µM (inactive) in the assay on OVCAR-3; > 100 µM (inactive) with UO-31; > 100 µM (inactive) in the assay with CAKI-1; > 100 µM (inactive) in the assay on BT-549; above 100 µM in the assay with HCT-15. Moreover, the GI50 in the assay on MCF7 was 55 µM (inactive); in the assay with DU-145, > 100 µM (inactive); in the assay on SK-OV-3, 98.9 µM (inactive); with A549 it was > 100 µM (inactive); with Malme-3M, > 100 µM (inactive); in the assay with MDA-N, > 100 µM (inactive). The GI50 in the assay on HL-60 is 1.74 µM (inactive).
`CSCCC(N)C(=O)NCCNc1ccc(NCCNC(=O)C(N)CCSC)c2c1C(=O)c1ccccc1C2=O` (configuration not stated): the GI50 in the assay on SW-620 was 1 µM (active); in the assay with SF-268, 0.659 µM (active); with HOP-62, 0.783 µM (active); in the assay with A498, 1.72 µM (inactive); in the assay with UACC-62, 1.23 µM (inactive); in the assay on NCI-H460, 0.351 µM (active). Besides, the GI50 is 3.25 µM (inactive) in the assay with UACC-257; 3.03 µM (inactive) in the assay on OVCAR-3; 1.41 µM (inactive) in the assay on UO-31; 1.03 µM (active) in the assay on CAKI-1; 1.48 µM (inactive) in the assay with BT-549; 1.22 µM in the assay on HCT-15. In addition, the GI50 was 0.409 µM (active) in the assay on MCF7; 0.798 µM (active) in the assay on DU-145; 2.62 µM (inactive) in the assay with SK-OV-3; 0.579 µM (active) in the assay on A549; 1.89 µM (inactive) in the assay on Malme-3M; 1.69 µM (inactive) in the assay on MDA-N. Further, in the assay with HL-60, the GI50 was 0.746 µM (active).
